Patent US8557831B2, “Compositions and methods for treatment and prevention of insulin resistance” (University of Florida Research Foundation, Inc., priority 2004, dated 2013)

Tests used:
[1] = test system: Male Sprague-Dawley rats; assay: Serum uric acid concentration in oxonic acid-induced hyperuricemia rat model; type: in vivo
Procedure: (§1) Male Sprague-Dawley rats were housed in standard conditions and fed normal diets. Hyperuricemia was induced with an uricase inhibitor, oxonic acid (OA; 750 mg/kg/day), by gavage, with control rats receiving vehicle. Allopurinol (AP) was used to block hyperuricemia by placing AP in the drinking water (150 mg/L). Rats were divided into four groups: (1) Control, (2) AP only, (3) OA only, and (4) OA+AP. Systolic blood pressure was measured using a tail-cuff sphygmomanometer. The amount of drinking water consumed and changes in body weight were noted. Rats were sacrificed at one and seven days. Serum was analyzed for uric acid concentration and nitrites/nitrates (NOx) by chemiluminescence method. (Prabhakar S S: Inhibition of mesangial iNOS by reduced extracellular pH is associated with uncoupling of NADPH oxidation. Kidney Int 61:2015-2024, 2002). Statistical analysis between subgroups was performed using ANOVA.

[2] = test system: Male Sprague-Dawley rats; assay: Serum nitrites/nitrates (NOx) by chemiluminescence method in hyperuricemic rats; type: in vivo, rat
Procedure: as §1

[3] = test system: Male Sprague-Dawley rats; assay: Systolic blood pressure by tail-cuff sphygmomanometer in hyperuricemic rats; type: in vivo, rat; conditions: 7 days, p=NS

| SMILES | serum uric acid ([1]; OA+AP group (AP 150 mg/L in drinking water), 7 days) | serum uric acid ([1]; OA+AP group (AP 150 mg/L in drinking water), day 1) | change in serum UA concentration ([1]; rats treated with AP alone) | serum nitrites and nitrates (NOx) ([2]; OA+AP group, 1 day) | serum nitrites and nitrates (NOx) ([2]; OA+AP group, 7 days) | change in serum NOx concentration ([2]; rats treated with AP alone) | systolic blood pressure [3] | serum uric acid ([1]; OA only group, 750 mg/kg/day by gavage, 1 day) | serum uric acid ([1]; OA only group, 750 mg/kg/day by gavage, 7 days) | serum nitrites and nitrates (NOx) ([2]; OA only group, 1 day) | serum nitrites and nitrates (NOx) ([2]; OA only group, 7 days) | reduction of serum nitrites and nitrates (NOx) vs. Control ([2]; hyperuricemic (OA) rats, at both 1 day and 7 days) |
| --- | --- | --- | --- | --- | --- | --- | --- | --- | --- | --- | --- | --- |
| Oc1ncnc2[nH]ncc12 [AP, Allopurinol] | 0.3 ± 0.2 mg/dL | 1.52 ± 0.3 mg/dL | did not show a significant change | 17.4 ± 0.8 µmol/L | 25.0 ± 0.8 µmol/L | did not show a significant change | – | – | – | – | – | – |
| O=C(O)c1nc(=O)[nH]c(=O)[nH]1 [OA, oxonic acid] | – | – | – | – | – | – | 178±18 mm Hg | 1.7 ± 0.7 mg/dL | 1.8 ± 0.4 mg/dL | 15.6 ± 0.4 µmol/L | 14.6 ± 1.1 µmol/L | 40-50% |
